Reference: patent US20190194179A1, “ANTIBIOTIC COMPOUNDS” (DISCUVA LTD., priority 2016, published 2019)
Where two headings read alike, the source gives them in different places.

Assays:
Assay type in all cases: cell-based
Staphylococcus aureus = assay: EC50 determination: broth growth assay of Staphylococcus aureus (Isosensitest broth); conditions: Table 1, panel of bacteria, 37° C., read-out: IC50 concentration against Staphylococcus aureus
Method: (§1) Actively growing Neisseria gonorrhoeae on GC agar (based on; Spence et. al. (2008): Curr. Protoc. Microbiol. 8:4A.1.1-4A.1.26) plates are harvested and transferred to GC broth (based on; Spence et al (2008): Curr. Protoc. Microbiol. 8:4A.1.1-4A.1.26) to generate a liquid stock. This culture is allowed to establish and grow to mid-log phase (at 37° C./5% CO2), finally this culture is diluted (˜10^5 cells/ml) to generate a seed inoculum to establish plate-based broth assays. EC50 values were determined by assaying growth (absorbance read at 600 nm, after 20 hours at 37° C./5% CO2) of Neisseria gonorrhoeae across a 10-point dilution series of the test compound. The EC50 value is determined from transformed data to identify the concentration of compound giving a 50% response relative to control samples (no compound).
(§2) EC50 determination for Staphylococcus aureus and Enterococcus Spp. followed a similar procedure but were conducted using Isosensitest broth (Oxoid) with incubations at 37° C. in atmospheric air. Final absorbance reads were conducted during the late exponential growth phase.

Enterococcus Spp. = assay: EC50 determination: broth growth assay of Enterococcus Spp. (Isosensitest broth); conditions: Table 1, panel of bacteria, 37° C.
Method: as §1, §2

Neisseria gonorrhoeae = assay: EC50 determination: plate-based broth growth assay (absorbance at 600 nm) of Neisseria gonorrhoeae; conditions: absorbance 600 nm after 20 hours at 37° C./5% CO2, read-out: IC50 (Inhibitory concentration) against Neisseria gonorrhoeae
Method in brief: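 Mid-log culture diluted to ~10^5 cells/ml as inoculum and grown 20 hours at 37° C./5% CO2 across a 10-point compound dilution series. Growth read as absorbance at 600 nm; EC50 taken from transformed data as the concentration giving 50% response relative to no-compound controls.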

[1] = Enterococcus faecalis, read-out: IC50 concentration against Entercoccus faecalis
[2] = Enterococcus faecium, read-out: IC50 concentration against Enterococcus faecium

SMILES	IC50 (Staphylococcus aureus) [nM]	IC50 (Neisseria gonorrhoeae) [nM]	IC50 (Enterococcus Spp.; [1]) [nM]	IC50 (Enterococcus Spp.; [2]) [nM]
FC(F)(F)c1ccc2oc(Nc3nc4cnccc4o3)nc2c1 [Example 60, N-(5-(triFluoromethyl)benzo[d]oxazol-2-yl)oxazolo[4,5-c]pyridin-2-amine]	≤ 10000	≤ 100	≤ 1000	≤ 10000
FC(F)(F)c1ccc2oc(Nc3nnco3)nc2c1 [Example 67, N-(1,3,4-Oxadiazol-2-yl)-5-(trifluoromethyl)benzo[d]oxazol-2-amine]	≤ 1000	≤ 100	≤ 10000	≤ 1000
FC(F)(F)c1cc2nc(Nc3nnc(CN4CCCC4)o3)oc2cc1Cl [Example 80, 6-Chloro-N-(5-(pyrrolidin-1-ylmethyl)-1,3,4-oxadiazol-2-yl)-5-(trifluoromethyl)benzo[d]oxazol-2-amine]	≤ 1000	≤ 100	≤ 1000	≤ 10000
FC(F)(F)c1ccc2nc(Nc3nnc(C4CC4)o3)oc2c1 [Example 105, N-(5-Cyclopropyl-1,3,4-oxadiazol-2-yl)-6-(trifluoromethyl)benzo[d]oxazol-2-amine]	≤ 1000	≤ 100	≤ 1000	≤ 1000
Cc1nnc(Nc2nc3cc(C(F)(F)F)ccc3o2)[nH]1 [Example 117, N-(5-Methyl-4H-1,2,4-triazol-3-yl)-5-(trifluoromethyl)benzo[d]oxazol-2-amine]	≤ 1000	≤ 1000	≤ 10000	≤ 10000
Clc1ccc2nc(Nc3nc4cnccc4o3)oc2c1 [Example 159, N-(6-Chlorobenzo[d]oxazol-2-yl)oxazolo[4,5-c]pyridin-2-amine]	≤ 100000	≤ 100000	≤ 100000	≤ 100000
FC(F)(F)c1cc2oc(Nc3nc4cc(Cl)ccc4o3)nc2cn1 [Example 165, N-(5-Chlorobenzo[d]oxazol-2-yl)-6-(trifluoromethyl) oxazolo[4,5-c]pyridin-2-amine]	≤ 10000	≤ 1000	≤ 10000	≤ 10000
FC(F)(F)c1cc2[nH]c(Nc3nc4ccccc4o3)nc2cn1 [Example 170, N-(6-(Trifluoromethyl)-1H-imidazo[4,5-c]pyridin-2-yl)benzo[d]oxazol-2-amine]	≤ 10000	≤ 1000	≤ 10000	≤ 10000
COCCOc1ccc2nc(Nc3nnco3)oc2c1 [Example 193, 6-(2-methoxyethoxy)-N-(1,3,4-oxadiazol-2-yl)benzo[d]oxazol-2-amine]		≤ 1000		
C#Cc1nnc(Nc2nc3ccc(Cl)cc3o2)o1 [Example 194, 6-Chloro-N-(5-ethynyl-1,3,4-oxadiazol-2-yl)benzo[d]oxazol-2-amine]		≤ 100		
Nc1ccc2nc(Nc3nnco3)oc2c1 [Example 195, N^2-(1,3,4-oxadiazol-2-yl)benzo[d]oxazole-2,6-diamine]		≤ 10000		
CC(C)Oc1ccc2nc(Nc3nnco3)oc2c1 [Example 196, 6-Isopropoxy-N-(1,3,4-oxadiazol-2-yl)benzo[d]oxazol-2-amine]		≤ 100000		
Cc1cc2oc(Nc3nnco3)nc2cc1F [Example 197, 5-Fluoro-6-methyl-N-(1,3,4-oxadiazol-2-yl)benzo[d]oxazol-2-amine]		≤ 100		
Clc1ccc2nc(Nc3nnc(N4CCCC4)o3)oc2c1 [Example 198, 6-Chloro-N-(5-(pyrrolidin-1-yl)-1,3,4-oxadiazol-2-yl)benzo[d]oxa-zol-2-amine]		≤ 10000		
Clc1ccc2nc(Nc3nnc(C4CCOC4)o3)oc2c1 (centres unmarked) [Example 199, 6-Chloro-N-(5-(tetrahydrofuran-3-yl)-1,3,4-oxadiazol-2-yl)benzo[d]oxa-zol-2-amine]		≤ 1000		
NC(=O)c1nnc(Nc2nc3ccc(Cl)cc3o2)o1 [Example 200, 5-((6-Chlorobenzo[d]oxazol-2-yl)amino)-1,3,4-oxadiazole-2-carboxamide]		≤ 100000		
NC(=O)c1nnc(Nc2nc3ccc(F)cc3o2)o1 [Example 201, 5-((6-Fluorobenzo[d]oxazol-2-yl)amino)-1,3,4-oxadiazole-2-carboxamide]		≤ 100000		
NC(=O)c1nnc(Nc2nc3cc(F)ccc3o2)o1 [Example 202, 5-((5-Fluorobenzo[d]oxazol-2-yl)amino)-1,3,4-oxadiazole-2-carboxamide]		≤ 200000		
Cc1cc2nc(Nc3nnco3)oc2cc1F [Example 203, 6-Fluoro-5-methyl-N-(1,3,4-oxadiazol-2-yl)benzo[d]oxa-zol-2-amine]		≤ 100		
COc1cc2nc(Nc3nnco3)oc2cc1Cl [Example 204, 6-chloro-5-methoxy-N-(1,3,4-oxadiazol-2-yl)benzo[d]oxa-zol-2-amine]		≤ 1000		
FC(F)(F)Oc1cc2nc(Nc3nnco3)oc2cc1Cl [Example 205, 6-Chloro-N-(1,3,4-oxadiazol-2-yl)-5-(trifluoro-methoxy)benzo [d]ox-azol-2-amine]		≤ 1000		
COc1cc2oc(Nc3nnco3)nc2cc1F [Example 206, 5-Fluoro-6-methoxy-N-(1,3,4-oxadiazol-2-yl)benzo[d]oxa-zol-2-amine]		≤ 1000		

More lines, main results first:

IC50 (Staphylococcus aureus) [nM]	IC50 (Neisseria gonorrhoeae) [nM]	SMILES	IC50 (Enterococcus Spp.; [1]) [nM]	IC50 (Enterococcus Spp.; [2]) [nM]
	≤ 100	Fc1cc2oc(Nc3nnco3)nc2cc1OC(F)(F)F [Example 207, 6-Fluoro-N-(1,3,4-oxadiazol-2-yl)-5-(trifluoromethoxy) benzo[d]ox-azol-2-amine]		
	≤ 1000	COc1cc2oc(Nc3nnco3)nc2cc1C [Example 208, 6-Methoxy-5-methyl-N-(1,3,4-oxadiazol-2-yl)benzo[d]oxa-zol-2-amine]		
	≤ 1000	COc1cc2nc(Nc3nnco3)oc2cc1F [Example 209, 6-Fluoro-5-methoxy-N-(1,3,4-oxadiazol-2-yl)benzo[d]oxa-zol-2-amine]		
	≤ 100	FC(F)(F)Oc1ccc2nc(Nc3nnco3)oc2c1 [Example 210, N-(1,3,4-Oxadiazol-2-yl)-6-(trifluoromethoxy) benzo[d]ox-azol-2-amine]		
	≤ 1000	CC(C)c1ccc2nc(Nc3nnco3)oc2c1 [Example 211, 6-Isopropyl-N-(1,3,4-oxadiazol-2-yl)benzo[d]oxa-zol-2-amine]		
	≤ 100000	O=C1CCCN1c1ccc2nc(Nc3nnco3)oc2c1 [Example 212, 1-(2-((1,3,4-oxadiazol-2-yl)amino)benz-o[d]oxazol-6-yl)pyrrolidin-2-one]		
	≤ 100	Clc1ccc2nc(Nc3nnc(C4CCCO4)o3)oc2c1 (centres unmarked) [Example 213, 6-Chloro-N-(5-(tetrahydrofuran-2-yl)-1,3,4-oxadiazol-2-yl)benzo[d]oxa-zol-2-amine]		
	≤ 100	CC(C)c1nnc(Nc2nc3ccc(Cl)cc3o2)o1 [Example 214, 6-Chloro-N-(5-isopropyl-1,3,4-oxadiazol-2-yl)benzo[d]oxa-zol-2-amine]		
	≤ 100000	CC(=O)N(C)c1ccc2nc(Nc3nnco3)oc2c1 [Example 215, N-(2-((1,3,4-Oxadiazol-2-yl)amino)benz-o[d]oxazol-6-yl)-N-methylacetamide]		
	≤ 1000	CCOC(=O)c1noc(Nc2nc3ccc(Cl)cc3o2)n1 [Example 216, Ethyl 5-((6-chlorobenzo[d]oxazol-2-yl)amino)-1,2,4-oxadiazole-3-carboxylate]		
	≤ 100	N#Cc1nnc(Nc2nc3ccc(Cl)cc3o2)o1 [Example 217, 5-((6-Chlorobenzo[d]oxazol-2-yl)amino)-1,3,4-oxadiazole-2-carbonitrile]		
	≤ 1000	N#Cc1nnc(Nc2nc3ccc(F)cc3o2)o1 [Example 218, 5-((6-Fluorobenzo[d]oxazol-2-yl)amino)-1,3,4-oxadiazole-2-carbonitrile]		
	≤ 1000	N#Cc1nnc(Nc2nc3cc(F)ccc3o2)o1 [Example 219, 5-((5-Fluorobenzo[d]oxazol-2-yl)amino)-1,3,4-oxadiazole-2-carbonitrile]		
	≤ 10000	Clc1cnc2nc(Nc3nnco3)oc2c1 [Example 220, 6-Chloro-N-(1,3,4-oxadiazol-2-yl)oxazolo[4,5-b]pyridin-2-amine]		
	≤ 1000	Clc1ccc2nc(Nc3cocn3)oc2c1 [Example 221, 6-Chloro-N-(oxazol-4-yl)benzo[d]oxazol-2-amine]		
	≤ 1000	Clc1ccc2nc(Nc3ccsn3)oc2c1 [Example 222, 6-Chloro-N-(isothiazol-3-yl)benzo[d]oxazol-2-amine]		
	≤ 100000	O=C(O)c1nnc(Nc2nc3ccc(F)cc3o2)o1 [Example 223, Sodium 5-((6-fluorobenzo[d]oxazol-2-yl)amino)-1,3,4-oxadiazole-2-carboxylate]		
	≤ 100000	Clc1ccc2nc(Nc3ncno3)oc2c1 [Example 224, 6-chloro-N-(1,2,4-oxadiazol-5-yl)benzo[d]oxazol-2-amine]		
	≤ 100000	Clc1ccc2nc(Nc3cnoc3)oc2c1 [Example 225, 6-Chloro-N-(isoxazol-4-yl)benzo[d]oxazol-2-amine]		
